Experimental data published in publication PMC10122656, “Siglec-6 mediates the uptake of extracellular vesicles through a noncanonical glycolipid binding pocket” (Nature Communications, 2023).
Values joined by “and” are separate entries in the source; they are usually repeats but may differ in a detail not shown here. Identical values can stand only once.

Assays:
Test in all cases: Cell assay (liposome/EV binding, flow cytometry)
Format in all cases: cell-based
R122A Siglec-6 CHO cells = target: T1, R122A Siglec-6 CHO cells (Homo sapiens, UniProt O43699, R122A); conditions: replicates; for log10(MFI AF647) of GLL relative to log10(MFI AF647) of the same GLL against UT CHO cells (Fig. 2a): Sig-6 R122A, 3 mol% ganglioside liposomes
T1 construct: expressed in transfected cells
T1 sequence (O43699 27-453 R122A): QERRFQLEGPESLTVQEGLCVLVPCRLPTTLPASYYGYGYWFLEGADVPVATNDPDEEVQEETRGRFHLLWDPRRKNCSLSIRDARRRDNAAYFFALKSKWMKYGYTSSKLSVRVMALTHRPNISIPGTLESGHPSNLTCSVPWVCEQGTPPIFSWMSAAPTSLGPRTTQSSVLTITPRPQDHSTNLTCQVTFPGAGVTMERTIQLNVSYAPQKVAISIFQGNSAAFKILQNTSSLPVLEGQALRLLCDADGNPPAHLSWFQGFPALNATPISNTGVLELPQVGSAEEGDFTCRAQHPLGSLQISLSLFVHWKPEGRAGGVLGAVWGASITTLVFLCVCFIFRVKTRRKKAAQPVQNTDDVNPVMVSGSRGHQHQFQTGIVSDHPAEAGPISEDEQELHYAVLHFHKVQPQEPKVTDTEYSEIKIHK
Summary of the method: (§1)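 Extruded PEGylated DSPC/cholesterol liposomes (100 nm filter; 130 ± 35 nm) bearing Siglec ligand and AF647 lipids. Cells + 50 µM liposome or 50 µg/mL EV, DMEM F12/5% FBS, 37 °C, 30 min; washed; anti-Siglec 1:250, ice 30 min; flow, Siglec+ gate.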

CD33 R119A CHO cells = target: T2, CD33 R119A CHO cells (Homo sapiens, UniProt P20138, R119A); conditions: 3 mol% ganglioside liposomes, replicates
T2 construct: expressed in transfected cells
T2 sequence (P20138 18-364 R119A): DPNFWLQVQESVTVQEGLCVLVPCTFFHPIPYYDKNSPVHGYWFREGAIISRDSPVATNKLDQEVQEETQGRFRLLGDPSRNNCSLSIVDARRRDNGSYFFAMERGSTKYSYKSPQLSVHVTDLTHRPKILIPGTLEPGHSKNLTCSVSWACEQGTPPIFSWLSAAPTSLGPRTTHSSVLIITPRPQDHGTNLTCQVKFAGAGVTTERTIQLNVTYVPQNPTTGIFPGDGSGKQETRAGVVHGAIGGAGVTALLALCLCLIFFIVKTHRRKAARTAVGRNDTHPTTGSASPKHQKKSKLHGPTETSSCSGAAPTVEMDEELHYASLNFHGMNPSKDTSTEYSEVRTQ
Summary of the method: (§2)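 Cells are incubated for 30 min at 37 °C with ligand-displaying liposomes (50 µM lipid) or EVs (50 µg/mL protein) in DMEM F12 containing 5% FBS. After washing and anti-Siglec staining on ice, liposome binding is quantified by flow cytometry within the Siglec-positive population.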

Siglec-8 R125A CHO cells = target: T3, Siglec-8 R125A CHO cells (Homo sapiens, UniProt Q9NYZ4, R125A); conditions: Sig-8 R125A; 3 mol% ganglioside liposomes; replicates
T3 construct: expressed in transfected cells
T3 sequence (Q9NYZ4 17-499 R125A): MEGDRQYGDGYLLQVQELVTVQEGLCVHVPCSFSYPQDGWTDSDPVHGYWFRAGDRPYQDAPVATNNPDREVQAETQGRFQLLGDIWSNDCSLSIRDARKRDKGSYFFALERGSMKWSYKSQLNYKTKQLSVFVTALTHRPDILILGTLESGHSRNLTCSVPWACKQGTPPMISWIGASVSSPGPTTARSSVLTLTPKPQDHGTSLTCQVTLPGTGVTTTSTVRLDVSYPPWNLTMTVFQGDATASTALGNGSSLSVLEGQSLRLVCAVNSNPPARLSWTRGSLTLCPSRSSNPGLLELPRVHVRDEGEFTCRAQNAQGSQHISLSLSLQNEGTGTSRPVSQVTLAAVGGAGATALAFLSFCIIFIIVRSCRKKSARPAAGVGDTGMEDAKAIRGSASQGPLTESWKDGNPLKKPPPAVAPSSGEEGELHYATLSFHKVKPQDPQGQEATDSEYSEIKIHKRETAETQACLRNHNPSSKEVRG
Summary of the method: as §1

[1] = target: T4, Siglec-11 R120A CHO cells (Homo sapiens, UniProt Q96RL6, R132A); conditions: Sig-11 R120A; 3 mol% ganglioside liposomes; replicates
T4 construct: expressed in transfected cells
T4 sequence (Q96RL6 28-698 R132A): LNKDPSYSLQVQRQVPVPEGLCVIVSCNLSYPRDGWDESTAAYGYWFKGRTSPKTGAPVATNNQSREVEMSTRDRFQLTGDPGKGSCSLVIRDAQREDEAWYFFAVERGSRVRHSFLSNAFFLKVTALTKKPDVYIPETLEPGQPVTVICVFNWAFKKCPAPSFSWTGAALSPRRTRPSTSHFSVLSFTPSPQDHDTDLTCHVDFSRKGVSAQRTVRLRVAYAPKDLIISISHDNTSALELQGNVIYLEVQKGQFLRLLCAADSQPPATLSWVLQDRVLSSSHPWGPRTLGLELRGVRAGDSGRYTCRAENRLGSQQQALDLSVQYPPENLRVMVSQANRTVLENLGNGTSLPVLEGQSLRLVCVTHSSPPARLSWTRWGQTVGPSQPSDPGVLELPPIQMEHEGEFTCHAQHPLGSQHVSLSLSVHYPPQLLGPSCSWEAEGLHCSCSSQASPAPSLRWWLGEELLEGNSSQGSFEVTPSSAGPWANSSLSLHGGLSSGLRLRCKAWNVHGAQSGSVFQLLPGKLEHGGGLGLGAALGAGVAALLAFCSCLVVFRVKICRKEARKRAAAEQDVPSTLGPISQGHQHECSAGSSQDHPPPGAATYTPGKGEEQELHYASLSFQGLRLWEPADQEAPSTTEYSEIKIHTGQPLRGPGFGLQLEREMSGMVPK
Summary of the method: as §2

Siglec-10 WT CHO cells = target: T5, Siglec-10 WT CHO cells (Homo sapiens, UniProt Q96LC7); conditions: for log10(MFI AF647) of GLL relative to log10(MFI AF647) of the same GLL against UT CHO cells (Fig. 2a): Sig-10 WT, 3 mol% ganglioside liposomes, replicates; for GLL binding to Siglec-10 (in words): cell assay, optimized liposomal formulation
T5 construct: expressed in transfected cells
T5 sequence (Q96LC7 17-697): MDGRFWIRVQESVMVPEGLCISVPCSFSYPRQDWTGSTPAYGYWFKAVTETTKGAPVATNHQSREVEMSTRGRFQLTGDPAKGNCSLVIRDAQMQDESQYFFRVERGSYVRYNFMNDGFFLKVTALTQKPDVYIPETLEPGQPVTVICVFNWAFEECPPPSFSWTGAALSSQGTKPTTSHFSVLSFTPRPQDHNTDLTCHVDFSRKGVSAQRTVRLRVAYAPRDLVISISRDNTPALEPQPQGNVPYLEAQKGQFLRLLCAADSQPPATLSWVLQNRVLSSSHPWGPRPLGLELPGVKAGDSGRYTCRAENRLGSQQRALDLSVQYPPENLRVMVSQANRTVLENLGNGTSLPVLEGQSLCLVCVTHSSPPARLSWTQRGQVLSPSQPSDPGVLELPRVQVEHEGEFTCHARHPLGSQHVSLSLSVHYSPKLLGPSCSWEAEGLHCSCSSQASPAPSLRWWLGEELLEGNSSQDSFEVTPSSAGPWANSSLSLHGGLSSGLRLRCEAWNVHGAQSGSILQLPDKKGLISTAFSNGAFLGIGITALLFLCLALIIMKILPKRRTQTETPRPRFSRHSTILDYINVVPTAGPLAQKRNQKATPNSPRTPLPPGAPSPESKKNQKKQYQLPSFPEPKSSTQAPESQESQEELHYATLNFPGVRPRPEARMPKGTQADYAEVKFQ
Summary of the method: as §1

CD33 WT CHO cells = target: T6, CD33 WT CHO cells (Homo sapiens, UniProt P20138); conditions: 3 mol% ganglioside liposomes, replicates
T6 construct: expressed in transfected cells
T6 sequence (P20138 18-364): as the sequence (P20138 18-364 R119A) above, with A102R counted along it
Summary of the method: as §2

Row | Compound | Binding of nGL liposomes relative to liposomes formulated with 3 mol% nGL 5 (Fig. 3g) (R122A Siglec-6 CHO cells; R122A Siglec-6 CHO cells, 3 mol% nGL) | log10(MFI AF647) of GLL relative to log10(MFI AF647) of the same GLL against UT CHO cells (Fig. 2a) (CD33 R119A CHO cells) | log10(MFI AF647) of GLL relative to log10(MFI AF647) of the same GLL against UT CHO cells (Fig. 2a) (Siglec-8 R125A CHO cells) | log10(MFI AF647) of GLL relative to log10(MFI AF647) of the same GLL against UT CHO cells (Fig. 2a) [1] | log10(MFI AF647) of GLL relative to log10(MFI AF647) of the same GLL against UT CHO cells (Fig. 2a) (Siglec-10 WT CHO cells) | log10(MFI AF647) of GLL relative to log10(MFI AF647) of the same GLL against UT CHO cells (Fig. 2a) (CD33 WT CHO cells) | log10(MFI AF647) of GLL relative to log10(MFI AF647) of the same GLL against UT CHO cells (Fig. 2a) (R122A Siglec-6 CHO cells) | GLL binding to Siglec-10 (in words) (Siglec-10 WT CHO cells)
1 | CCCCCCCCCCCCCCCCOCC(COCCCCCCCCCCCCCCCC)OCc1cn(CCO[C@@H]2O[C@H](CO)[C@@H](O[C@@H]3O[C@H](CO)[C@H](O)[C@H](O[C@]4(C(=O)O)C[C@H](O)[C@@H](NC(C)=O)[C@H]([C@H](O)[C@H](O)CO)O4)[C@H]3O)[C@H](O)[C@H]2O)nn1 [nGL 5] | 1.02 and 1.01 and 0.97 |  |  |  |  |  |  | 
2 | GD1a |  | 0 (2×) and -0.03 and -0.02 | -0.1 and -0.13 (3×) | -0.11 and -0.13 and -0.12 (2×) | 0.32 (2×) and 0.3 and 0.31 | -0.09 and -0.06 and -0.03 and 0.01 | 0.5 and 0.47 and 0.41 and 0.51 | 
3 | GD1b |  | -0.06 and -0.07 and -0.04 and -0.05 | -0.14 and -0.15 and -0.17 and -0.19 | -0.11 (2×) and -0.12 (2×) | 0.18 and 0.23 and 0.2 and 0.22 | -0.13 and -0.1 (2×) and -0.07 | 0.2 and 0.17 (2×) and 0.16 | 
4 | GD3 |  | 0 (2×) and 0.03 (2×) | -0.04 (2×) and -0.08 (2×) | -0.1 and -0.11 and -0.12 (2×) | 0.33 (2×) and 0.31 (2×) | -0.03 (2×) and -0.01 and 0 | 0.78 (2×) and 0.7 and 0.79 | novel interactions were observed
5 | GM1 |  | -0.15 and -0.13 and -0.21 (2×) | -0.02 and -0.06 and -0.08 and -0.03 | 0.1 and 0.05 and 0.07 and 0.13 | 0.32 (2×) and 0.35 and 0.26 | -0.29 and -0.27 and -0.21 and -0.16 | 0.91 and 0.89 and 0.86 and 0.85 | novel interactions were observed
6 | GM2 |  | -0.01 and 0 and 0.03 (2×) | -0.12 and -0.14 and -0.17 (2×) | -0.07 (2×) and -0.06 (2×) | 0.23 and 0.24 and 0.22 and 0.18 | -0.08 and -0.05 and -0.02 and 0 | 0.01 | 
7 | GM3 |  | -0.06 (2×) and -0.03 (2×) | -0.18 and -0.17 and -0.2 (2×) | -0.13 (3×) and -0.12 | -0.09 (2×) and -0.02 and -0.08 | -0.19 and -0.14 and -0.12 and -0.08 | -0.11 (2×) and -0.14 (2×) | 
8 | GM4 |  | -0.05 (2×) and -0.02 (2×) | -0.14 (3×) and -0.16 | -0.11 (2×) and -0.1 (2×) | 0.2 and 0.21 (3×) | -0.13 and -0.11 and -0.09 and -0.02 | 0 | 
9 | GQ1b |  | -0.11 (2×) and -0.1 and -0.09 | 0.01 and -0.02 and -0.04 and -0.05 | -0.19 (2×) and -0.22 and -0.18 | 0.23 and 0.24 and 0.22 and 0.21 | -0.12 (2×) and -0.14 and -0.09 | 0.46 and 0.48 and 0.4 and 0.42 | 
10 | GT1b |  | -0.06 | -0.22 (2×) and -0.23 and -0.24 | -0.17 (2×) and -0.16 and -0.19 | 0.42 (2×) and 0.4 and 0.39 | -0.09 and -0.1 and -0.08 and -0.06 | 0.72 and 0.7 and 0.61 and 0.69 | 
